In ChEMBL document CHEMBL5674860, “Optimized Dual-Glo Assay to identify co-culture-induced drug vulnerabilities in 3D CRC models” (2024):

How the values were obtained:
Assay type in all cases: functional, Homo sapiens
Set-up in all cases: dose or concentration left out as unconfirmed
Colon cancer organoid [1] = test: Optimized Dual-Glo assay to identify co-culture induced drug vulnerabilities using donated chemical probes and chemogenomics kinase set in O06 CRC organoid and F06 CAF mono and co-culture. […] Cell viability is reported both mono and co-culture models.
Colon cancer organoid [2] = test: Optimized Dual-Glo assay to identify co-culture induced drug vulnerabilities using donated chemical probes and chemogenomics kinase set in O20 CRC organoid and F20 CAF mono and co-culture. […] Cell viability is reported both mono and co-culture models.
Colon cancer organoid [3] = test: Optimized Dual-Glo assay to identify co-culture induced drug vulnerabilities using donated chemical probes and chemogenomics kinase set in O14 CRC organoid and F14 CAF mono and co-culture. […] Cell viability is reported both mono and co-culture models.
[4] = Culture type Co-Culture, Transduced with Lucferase2-P2A-EGFP lentivirus
[5] = Culture type Co-Culture, Transduced with Renilla-dsRed lentivirus
[6] = Culture type Mono-Culture, Transduced with Lucferase2-P2A-EGFP lentivirus
[7] = Culture type Mono-Culture, Transduced with Renilla-dsRed lentivirus

SMILES | Cell Viability (Colon cancer organoid [1]; [4]) | Cell Viability (Colon cancer organoid [1]; [5]) | Cell Viability (Colon cancer organoid [1]; [6]) | Cell Viability (Colon cancer organoid [1]; [7]) | Cell Viability (Colon cancer organoid [2]; [4]) | Cell Viability (Colon cancer organoid [2]; [5]) | Cell Viability (Colon cancer organoid [2]; [6]) | Cell Viability (Colon cancer organoid [2]; [7]) | Cell Viability (Colon cancer organoid [3]; [4]) | Cell Viability (Colon cancer organoid [3]; [5]) | Cell Viability (Colon cancer organoid [3]; [6]) | Cell Viability (Colon cancer organoid [3]; [7])
CN1CCN(C(=O)C(C)(C)c2ccc(C(=O)Nc3cn4cc(-c5cc(C(C)(C)C)cc(C(C)(C)C)c5)ccc4n3)cc2)CC1 [T3-CLK-N] | 119.67% | 85.6501% | 109.915% | 85.7063% | 83.0148% | 112.725% | 124.688% | 67.9916% | 129.357% | 95.6255% | 93.4655% | 83.9103%
CNC(=O)c1ccc(Nc2ncc(C(F)(F)F)c(NCc3nccnc3N(C)S(C)(=O)=O)n2)cc1 [DEFACTINIB] | 127.858% | 116.047% | 102.967% | 60.766% | 57.0475% | 79.7534% | 66.5234% | 63.7293% | 83.442% | 104.135% | 42.8527% | 104.257%
COc1cc(-c2cn([C@H]3CCc4c(F)cccc4N(CC(F)(F)F)C3=O)nn2)ccc1-n1cnc(C)c1 | 117.399% | 118.336% | 87.9333% | 111.054% | 119.382% | 109.286% | 102.589% | 90.6954% | 75.4426% | 112.422% | 84.8132% | 97.4006%
CN1CCN(c2ccc(-c3cccc(CN4CCOCC4)c3)cc2NC(=O)c2c[nH]c(=O)cc2C(F)(F)F)CC1 | 91.1397% | 122.014% | 99.8143% | 114.421% | 82.2903% | 116.555% | 112.073% | 84.4992% | 81.9859% | 136.534% | 110.455% | 90.7791%
CN1CCN(c2cnc3c(C4CCN(C(=O)c5ccc(OC(F)(F)F)cc5N)CC4)ncnc3c2)CC1 [BAY-885] | 128.922% | 132.533% | 82.0167% | 90.7895% | 78.3205% | 141.163% | 69.7079% | 80.8249% | 92.1967% | 106.052% | 52.9657% | 104.304%
Cl.Cl.Cl.c1ccc(N2CCN(Cc3nc4ccccc4[nH]3)CC2)nc1 | 145.739% | 162.508% | 117.947% | 106.828% | 41.4322% | 124.541% | 78.9868% | 88.4978% | 78.8417% | 120.535% | 87.6489% | 99.3304%
COc1cc(C(=O)O)ncc1C#Cc1ccccc1NS(=O)(=O)c1cccc2c(N(C)C)ccnc12 [MSC-0516] | 46.2412% | 64.6541% | 39.7973% | 95.1501% | 89.6649% | 109.372% | 112.972% | 85.9962% | 94.2911% | 93.5429% | 114.942% | 88.0348%
Nc1nc(NCc2ccccc2)nc(-c2cccc(CO)c2)n1 [ZINC32547799] | 97.3324% | 116.001% | 131.751% | 105.708% | 123.978% | 66.6285% | 56.0193% | 93.8657% | 88.7631% | 96.1691% | 137.995% | 97.2983%
CCS(=O)(=O)c1cc2cc(C[C@](O)(CC(C)(C)c3ccc(F)cc3C(N)=O)C(F)(F)F)[nH]c2cn1 [BI 653048] | 136.436% | 297.33% | 97.0766% | 179.661% | 85.6205% | 287.465% | 124.389% | 135.577% | 98.1614% | 169.499% | 94.8893% | 163.254%
Cc1cc(C)cc([C@@H]2c3cc(C)ccc3NC(=O)CN2C(=O)c2ccc(Br)s2)c1 | 107.168% | 464.523% | 138.593% | 545.831% | 135.921% | 541.943% | 109.076% | 515.86% | 88.8372% | 581.73% | 126.733% | 467.801%
CCOc1cc2ncc(C#N)c(Nc3ccc(OCc4cccc(F)c4)c(Cl)c3)c2cc1NC(=O)/C=C/CN(C)C [HKI-357] | 16.8896% | 39.6819% | 6.232% | 45.0211% | 50.2885% | 47.1207% | 7.299% | 36.419% | 25.3344% | 46.9424% | 1.402% | 33.5455%
CCCc1cc(C)[nH]c(=O)c1CNC(=O)c1cc(-c2ccnc(N3CCN(C)CC3)c2)cc2c1cnn2C(C)C | 75.6598% | 125.188% | 109.33% | 104.205% | 55.9892% | 146.305% | 86.0915% | 120.133% | 90.4891% | 115.464% | 111.507% | 115.721%
COc1cc2ncn(-c3cc(OCc4ccccc4C(F)(F)F)c(C(N)=O)s3)c2cc1OC [GW843682X] | 4.781% | 182.458% | 3.81% | 121.646% | 89.2195% | 152.214% | 57.1216% | 108.759% | 8.715% | 209.484% | 23.2418% | 105.344%
C[C@H](c1ccnc(Nc2nc3ccc(-c4cc(N(C)C)ncn4)cc3[nH]2)c1)N1CCN(C(=O)CC(F)(F)F)CC1 [BAY-985] | 134.436% | 180.071% | 90.5996% | 96.3949% | 129.711% | 125.86% | 106.931% | 106.043% | 122.433% | 113.895% | 111.789% | 77.4572%
CCCCN(CCCC)C(=O)CN1C[C@@H](c2cc(OC)c3c(c2)OCO3)[C@H](C(=O)O)[C@H]1CC(C)(C)CCC [A-545] | 124.297% | 133.906% | 113.751% | 92.0951% | 123.099% | 97.2502% | 106.602% | 112.439% | 105.072% | 96.9928% | 119.694% | 109.859%
O=C(Nc1cccnn1)N1CCC(=Cc2cccc(Oc3ccc(C(F)(F)F)cn3)c2)CC1 | 113.161% | 193.053% | 80.1285% | 90.1757% | 75.4997% | 114.419% | 100.525% | 97.4491% | 80.0964% | 115.877% | 79.6396% | 77.8588%
CN(C)[C@@H]1CCN(c2cc(-c3ccccc3)nc3ccnn23)C1 [(R)-ZINC-3573] | 122.992% | 121.371% | 72.8757% | 94.4779% | 97.0418% | 99.7993% | 84.3174% | 93.0838% | 103.063% | 100.336% | 115.069% | 113.962%
Cc1ccc2[nH]c(CNCCCc3ccncc3)cc(=O)c2c1 [UCSF924NC] | 92.2965% | 82.507% | 94.1046% | 89.0396% | 121.67% | 109.302% | 107.027% | 101.655% | 108.907% | 109.825% | 95.9143% | 99.591%
